This is an account of results in US8865158B2, “Bacteriophages for reducing toxicity of bacteria” (priority 2012, dated 2014).

Assay [1] deals with E. coli K-12 nalidixic acid-resistant mutants, Nal1-8. As to the kind of experiment: MIC determination to nalidixic acid, resistant mutants. Type of assay: cell-based. As to conditions: Escherichia coli. How it is done:
Table 3 recites E. coli K-12 nalidixic acid-resistant mutants, Nal1-8, isolated on 50 μg/ml nalidixic acid. Substitutions in the GyrA protein are indicated, as well as the MIC to nalidixic acid.
(§1) Over twenty different overnight cultures of a total of ˜10^11 E. coli K-12 cells were inoculated on Luria-Bertani (LB)-agar plates containing 50 μg/ml streptomycin or 50 μg/ml nalidixic acid. Resistant mutants emerged, in both cases, at a median frequency of ˜1 in 10^9 CFU, and were picked from different cultures, to reduce the occurrence of sibling mutants. These bacteria were streaked on an agar plate containing the appropriate antibiotic. The rpsL or gyrA genes of resistant mutants emerging on the plate were PCR-amplified followed by DNA sequencing.
(§2) MIC determination was carried out by following the procedure described by Wiegand et al. (19). Briefly, bacterial cells were grown overnight at 32° C. in LB and diluted to 10^7-10^9 CFU/ml. The obtained suspension was serially diluted 10-fold for different spot concentrations, as indicated. Approximately 1 μl of bacterial suspension was then spotted onto selection plates containing different concentrations of either streptomycin or nalidixic acid along with the appropriate selection agent (chloramphenicol or tellurite), as indicated, using a 48-pin replicator. Plates were incubated overnight and photographed using MiniBis Pro (Bio-Imaging Systems). Photographs were digitally manipulated using GIMP2 software to adjust contrast. Liquid-based MIC determination assays were carried out by inoculating serial dilutions of an antibiotic in liquid LB broth with bacterial cultures (OD600 ˜0.05) in 96-well microtiter plates. Plates were incubated overnight at 32° C. and OD600 was then measured. The lowest antibiotic concentration at which the relative growth compared to the “no-drug” control was below 10% was determined as the MIC.

Assay [2] relates to pathogenic E. coli. As to conditions: 36 pathogenic E. coli resistant to high levels of nalidixic acid; cited from earlier work.
For assay [3], the system named is E. coli K-12 parental strain. Put plainly: MIC to streptomycin of the parental strain. Format: cell-based. As to conditions: Escherichia coli. How it is done: MIC determination was carried out by following the procedure described by Wiegand et al. (19). Briefly, bacterial cells were grown overnight at 32° C. in LB and diluted to 10^7-10^9 CFU/ml. The obtained suspension was serially diluted 10-fold for different spot concentrations, as indicated. Approximately 1 μl of bacterial suspension was then spotted onto selection plates containing different concentrations of either streptomycin or nalidixic acid along with the appropriate selection agent (chloramphenicol or tellurite), as indicated, using a 48-pin replicator. Plates were incubated overnight and photographed using MiniBis Pro (Bio-Imaging Systems). […] Plates were incubated overnight at 32° C. and OD600 was then measured. […]
Minimum inhibitory concentration (MICs) to streptomycin were determined by agar-plate assay (19). […] The MICs throughout the study were also measured in a complementary liquid-determination assay, giving a similar readout (not shown). […] These strains were transformed with the plasmid pRpsL-wt, encoding the wt rpsL, or a control plasmid, pRpsLΔ4, encoding a mock gene (a defective rpsL with a 4-bp deletion that disrupts the reading frame after amino acid 26 of the RpsL protein; see FIG. 1) under a modified early E. coli promoter from phage T7. […] The MICs of the transformed strains to streptomycin were then determined.

Assay [4] has as its system E. coli K-12 streptomycin-resistant mutants, Sm1-22. Put plainly: MIC determination to streptomycin, agar-plate assay, resistant mutants. Type of assay: cell-based. As to conditions: Escherichia coli. The procedure: Table 2 recites the E. coli K-12 streptomycin-resistant mutants, Sm1-22, isolated on 50 μg/ml streptomycin. Substitutions in the RpsL protein are indicated, as well as the MIC to streptomycin.
as §1, §2
Minimum inhibitory concentration (MICs) to streptomycin were determined by agar-plate assay (19). In this assay, ˜10^4 cells are replica-plated on plates with different drug concentrations. The lowest concentration at which there is no visible colony-formation is defined as the MIC. The MICs throughout the study were also measured in a complementary liquid-determination assay, giving a similar readout (not shown). Two representatives of the most common streptomycin-resistant strains obtained above were taken for further study: strains Sm6 and Sm13, harboring mutations in rpsL leading to substitutions of R86S and K88R, respectively. […] These strains were transformed with the plasmid pRpsL-wt, encoding the wt rpsL, or a control plasmid, pRpsLΔ4, encoding a mock gene (a defective rpsL with a 4-bp deletion that disrupts the reading frame after amino acid 26 of the RpsL protein; see FIG. 1) under a modified early E. coli promoter from phage T7. Transformed cells were selected on agar plates supplemented with 35 μg/ml chloramphenicol, as the plasmid encodes chloramphenicol acetyl transferase, which confers chloramphenicol resistance. The MICs of the transformed strains to streptomycin were then determined.

In assay [5] the test system is E. coli. As to conditions: cited from earlier work.

Values after ≈ are worked out from the molar mass of the structure shown. Like-named read-outs stand apart in the source and are kept apart here.

A word on the MIC: it is the lowest concentration found to suppress growth. As to `CCn1cc(C(=O)O)c(=O)c2ccc(C)nc21` [nalidixic acid], the MIC in assay [1] (read-out: MIC to nalidixic acid, mutant Nal1, GyrA S83L) was not below 50 µg/mL; in assay [1] (read-out: MIC to nalidixic acid, mutant Nal2, GyrA S83L), not below 50 µg/mL; in assay [1] (read-out: MIC to nalidixic acid, mutant Nal3, GyrA S83L), not below 50 µg/mL; in assay [1] (read-out: MIC to nalidixic acid, mutant Nal4, GyrA D87G) it was 128 µg/mL (≈ 551 µM); in assay [1] (read-out: MIC to nalidixic acid, mutant Nal5, GyrA D87G) it was 128 µg/mL (≈ 551 µM); in assay [1] (read-out: MIC to nalidixic acid, mutant Nal6, GyrA D87G) it was 128 µg/mL (≈ 551 µM). In addition, the minimum inhibitory concentration (MIC) in assay [1] (read-out: MIC to nalidixic acid, mutant Nal7, GyrA D87G) was found to be 128 µg/mL (≈ 551 µM); in assay [1] (read-out: MIC to nalidixic acid, mutant Nal8, GyrA D87G) it was 128 µg/mL (≈ 551 µM). For the same molecule, the “MIC of nalidixic acid” value in assay [2] is not below 256 µg/mL.
`[H]/N=C(/N)N[C@H]1[C@H](O)[C@@H](O)[C@H](O[C@@H]2O[C@@H](C)[C@](O)(C=O)[C@H]2O[C@@H]2O[C@@H](CO)[C@H](O)[C@@H](O)[C@@H]2NC)[C@@H](N/C(N)=N\[H])[C@@H]1O` [streptomycin]: the MIC in assay [3] was 1.56 µg/mL (≈ 2.68 µM); in assay [4] (read-out: MIC to streptomycin, mutant Sm1, RpsL P42S) it was not below 50000 µg/mL; in assay [4] (read-out: MIC to streptomycin, mutant Sm3, RpsL K43N), not below 50000 µg/mL; in assay [4] (read-out: MIC to streptomycin, mutant Sm4, RpsL R54S), not below 50000 µg/mL; in assay [4] (read-out: MIC to streptomycin, mutant Sm5, RpsL R86S), not below 50000 µg/mL; in assay [4] (read-out: MIC to streptomycin, mutant Sm6, RpsL R86S) it was 100000 µg/mL (≈ 172000 µM). Moreover, the MIC in assay [4] (read-out: MIC to streptomycin, mutant Sm7, RpsL R86S) was not below 50000 µg/mL; in assay [4] (read-out: MIC to streptomycin, mutant Sm8, RpsL R86S), not below 50000 µg/mL; in assay [4] (read-out: MIC to streptomycin, mutant Sm9, RpsL R86S), not below 50000 µg/mL; in assay [4] (read-out: MIC to streptomycin, mutant Sm10, RpsL R86S), not below 50000 µg/mL; in assay [4] (read-out: MIC to streptomycin, mutant Sm11, RpsL K88E), not below 50000 µg/mL; in assay [4] (read-out: MIC to streptomycin, mutant Sm22, no substitution in RpsL) it was not below 50000 µg/mL. Further, the MIC stood at 100 µg/mL in assay [4] (read-out: MIC to streptomycin, resistant mutant Sm6 (R86S) without sensitizing construct) and 200 µg/mL in assay [4] (read-out: MIC to streptomycin, resistant mutant Sm13 (K88R) without sensitizing construct).
With `O=[Te]([O-])[O-].[K+].[K+]` [tellurite, potassium-tellurite (K2TeO3)], the values for the MIC of tellurite in assay [5] (E. coli either having or lacking the chromosomal tehAB genes) and in assay [5] (cells harboring an extrachromosomal tehAB with an active promoter) were 2 µg/mL and 128 µg/mL, respectively. In addition, the “Increase of MIC of tellurite upon tehAB expression from an active promoter” value in assay [5] (tehAB expressed from an active promoter (e.g. T7)) is reported as 50-100 fold.
